Measured values from patent US20080167379A1, “Ointment” (TAISHO PHARMACEUTICAL CO., LTD., priority 2005, published 2008).

Assays:
[1] = Storage stability of ointment at 40° C. and 75% RH: content against initial content; type: physicochemical; details: storage at 40° C. and 75% RH 1 month or 25° C. 3 months, Table 5
Description: To confirm the storage stability of the compound represented by formula (II) in the preparation, the content (%) of the compound after a storage at 40° C. and 75% RH against the content at the time of initiation, was determined.
To confirm the storage stability of the compound represented by formula (II) in the preparation, the contents (%) of the compound after storages at 40° C. and 75% RH, and at 50° C. against the content at the time of initiation, was determined.
To confirm the storage stability of the compound represented by formula (II) in the preparation, the contents (%) of the compound after a storage at 40° C. and 75% RH, or at 25° C. against the content at the time of initiation, was determined.

NC/Nga mice = experiment: Spontaneous scratching action after ointment application; type: in vivo; details: ointment applied to NC/Nga mice; FIG. 2
Description: [FIG. 2] A graph showing the number of scratching action (average value ±SE, n=8) when a present ointment was applied to NC/Nga mice.
(§1) According to the methods described in the literature (Japanese Laid-open patent publication Nos. 2005-247843 and 2005-247842), measurements of the spontaneous action of scratching and the amount of transdermal water evaporation were performed with regard to the compound represented by formula (II). A test was performed, using ointments prepared in the same manner as in Example 4 to have the compound represented by formula (II) at concentrations of 0.0001% and 0.001%.

[2] = tested on: BALB/c mice having the skin barrier destroyed by chafing; experiment: Transdermal water evaporation (TEWL) after ointment application; type: in vivo; details: ointment applied to BALB/c mice with skin barrier destroyed by chafing, compared with base only; FIG. 3
Description: [FIG. 3] A graph showing the amount of transdermal evaporation of water (TEWL, average value ±SE, n=8) when a present ointment was applied to BALB/c mice having the skin barrier destroyed by chafing.
as §1

storage stability (in words) [1]: stable in the drugs
SMILES: O=C(O)CSCCCC[C@@H]1[C@@H](C#C[C@@H](O)C2CCCCC2)[C@H](O)C[C@H]1Cl [compound represented by formula (II)]
number of scratching action (NC/Nga mice): a decrease in the scratching action
amount of transdermal evaporation of water (TEWL) [2]: a decrease in the amount of transdermal water evaporation
